This note sets out measurements from PMC11533140 (Frontiers in Pharmacology, 2024).

One data set addresses PI3Kα (Homo sapiens, UniProt P42336). The experiment in a line: in vitro PI3Kα kinase inhibition assay. It is filed as biochemical. How it is done: (§1) The in vitro inhibition assays of all final compounds against PI3K were performed by Shanghai ChemPartner Co., Ltd. (China). The antiproliferative activities of the compounds against A2780, U87MG, MCF7, and DU145 cell lines were tested by the standard MTT method. CHO cells stably expressing the transcript of hERG were investigated by the automated whole-cell patch clamp technique, using the QPatch system (Sophion). The compound was tested with Salmonella typhimurium strains TA98 and TA100 with the plate incorporation method at seven doses. Apoptosis was evaluated using the One-Step TUNEL Apoptosis Assay Kit (FITC) (cat. no. MA0223; Meilunbio, Dalian, China), according to the manufacturer’s protocol. Male and female SD rats (SLRC Laboratory Animal Inc., Shanghai, China) were used, and the detailed pharmacokinetic procedures are described in Supplementary Material.

For the next data set, the target named is T1, hERG (Homo sapiens, UniProt Q12809).
T1 construct: expressed in transfected cells
The experiment in a line: hERG automated whole-cell patch clamp (QPatch), CHO cells. It is filed as cell-based. The settings on record: human, CHO cells stably expressing hERG; CHO cells expressing hERG, patch clamp; read-out: IC50 on hERG potassium currents. How it is done: as §1
To evaluate cardiotoxicity, it is necessary to test inhibitory activity on hERG potassium currents.

Another data set relates to MCF7 cells. The experiment in a line: MTT antiproliferative assay, MCF7. It counts as cell-based. The settings on record: Homo sapiens. The procedure: as §1
The test system of the next data set is DU145 cells. Description: MTT antiproliferative assay, DU145. It counts as cell-based. The settings on record: for IC50: Homo sapiens, DU-145. The procedure: as §1
A further data set concerns U87MG cells. The experiment in a line: MTT antiproliferative assay, U87MG. It is filed as cell-based. The settings on record: for IC50: Homo sapiens, U-87 MG. The procedure: as §1
Another data set concerns A2780 cells. The experiment in a line: MTT antiproliferative assay, A2780. The settings on record: Homo sapiens. It counts as cell-based. How it is done: as §1
The target in a further data set is PI3Kδ (Homo sapiens, UniProt O00329). Description: in vitro PI3Kδ inhibition assay (isoform selectivity). The settings on record: Table 4. It is filed as biochemical. The procedure: as §1
Another data set has as its target PI3Kβ (Homo sapiens, UniProt P42338). The experiment in a line: in vitro PI3Kβ inhibition assay (isoform selectivity). It counts as biochemical. The settings on record: Table 4. How it is done: as §1
Another data set has as its target PI3Kγ (Homo sapiens, UniProt P48736). Description: in vitro PI3Kγ inhibition assay (isoform selectivity). It is filed as biochemical. The settings on record: Table 4. The procedure: as §1
In another data set the target is mTOR (Homo sapiens, UniProt P42345). The experiment in a line: in vitro mTOR inhibition assay (selectivity). The settings on record: Table 4. It counts as biochemical. The procedure:
as §1

The next data set relates to HL-7702 cells. Description: inhibitory activity on normal cells, HL-7702. It counts as cell-based. The settings on record: Homo sapiens, L02. An excerpt: (§2) Several clinical PI3K candidates were severely intolerable to patients due to fatal hepatotoxicity and, thus, failed in clinical trials. Thus, evaluating the selectivity of compounds toward normal cells might reduce the risk of clinical failure of new compounds.

Another data set deals with MRC-5 cells. Description: inhibitory activity on normal cells, MRC-5. The settings on record: Homo sapiens, MRC5. It counts as cell-based.
Excerpt: as §2

Data set [1] deals with Salmonella typhimurium TA98. The experiment in a line: Ames test, plate incorporation, TA98. It is filed as cell-based. The settings on record: control, dose not given. The procedure: as §1
(§3) S. typhimurium TA98 and TA100 were selected to conduct the Ames experiment to investigate the genotoxicity risk of compound 17p.

In data set [2] the test system is Salmonella typhimurium TA100. Description: Ames test, plate incorporation, TA100. It is filed as cell-based. The settings on record: control, dose not given. How it is done: as §1, §3
The mark [3] stands for this setting: mean of three independent experiments, read-out: IC50 against PI3Kα.
[4] abbreviates: mean of three independent experiments.
Setting [5] is: Figure 5 activity bins, read-out: weak activity IC50 in SAR figure (PI3Kα).
[6] abbreviates: Figure 5 activity bins, read-out: IC50 range in SAR figure (PI3Kα).
The mark [7] stands for this setting: Table 4, read-out: IC50 PI3Kα (isoform selectivity study).

Read-outs that look alike come from different tables or passages of the source.

Chain of PI3Kα (P42336 whole entry): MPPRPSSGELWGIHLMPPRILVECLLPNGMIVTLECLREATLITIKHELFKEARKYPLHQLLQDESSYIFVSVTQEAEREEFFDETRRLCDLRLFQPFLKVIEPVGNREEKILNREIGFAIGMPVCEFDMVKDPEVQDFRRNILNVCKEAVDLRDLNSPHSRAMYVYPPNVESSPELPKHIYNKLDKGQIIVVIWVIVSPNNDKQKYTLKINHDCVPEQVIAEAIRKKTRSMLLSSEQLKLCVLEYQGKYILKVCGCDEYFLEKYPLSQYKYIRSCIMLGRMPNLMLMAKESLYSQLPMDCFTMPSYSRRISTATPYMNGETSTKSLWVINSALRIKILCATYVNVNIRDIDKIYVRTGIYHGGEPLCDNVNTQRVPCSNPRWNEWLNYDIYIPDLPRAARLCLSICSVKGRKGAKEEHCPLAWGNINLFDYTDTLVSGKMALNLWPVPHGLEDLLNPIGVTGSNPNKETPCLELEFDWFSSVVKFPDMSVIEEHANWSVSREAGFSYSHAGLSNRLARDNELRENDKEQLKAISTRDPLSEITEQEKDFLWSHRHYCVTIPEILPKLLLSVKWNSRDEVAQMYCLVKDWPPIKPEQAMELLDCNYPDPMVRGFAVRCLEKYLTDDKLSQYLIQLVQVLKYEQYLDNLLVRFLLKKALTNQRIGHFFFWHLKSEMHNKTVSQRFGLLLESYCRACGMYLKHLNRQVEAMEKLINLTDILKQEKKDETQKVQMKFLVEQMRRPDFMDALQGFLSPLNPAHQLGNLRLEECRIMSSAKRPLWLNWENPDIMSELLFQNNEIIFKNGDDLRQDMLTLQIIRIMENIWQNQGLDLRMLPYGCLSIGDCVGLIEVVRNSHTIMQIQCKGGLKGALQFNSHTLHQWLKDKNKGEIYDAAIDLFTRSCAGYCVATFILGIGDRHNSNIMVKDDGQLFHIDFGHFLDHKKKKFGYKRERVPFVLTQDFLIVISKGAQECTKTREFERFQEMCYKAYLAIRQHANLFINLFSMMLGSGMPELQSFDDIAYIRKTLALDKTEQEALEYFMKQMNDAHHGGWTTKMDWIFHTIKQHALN
Chain of PI3Kα (P27986 whole entry partner): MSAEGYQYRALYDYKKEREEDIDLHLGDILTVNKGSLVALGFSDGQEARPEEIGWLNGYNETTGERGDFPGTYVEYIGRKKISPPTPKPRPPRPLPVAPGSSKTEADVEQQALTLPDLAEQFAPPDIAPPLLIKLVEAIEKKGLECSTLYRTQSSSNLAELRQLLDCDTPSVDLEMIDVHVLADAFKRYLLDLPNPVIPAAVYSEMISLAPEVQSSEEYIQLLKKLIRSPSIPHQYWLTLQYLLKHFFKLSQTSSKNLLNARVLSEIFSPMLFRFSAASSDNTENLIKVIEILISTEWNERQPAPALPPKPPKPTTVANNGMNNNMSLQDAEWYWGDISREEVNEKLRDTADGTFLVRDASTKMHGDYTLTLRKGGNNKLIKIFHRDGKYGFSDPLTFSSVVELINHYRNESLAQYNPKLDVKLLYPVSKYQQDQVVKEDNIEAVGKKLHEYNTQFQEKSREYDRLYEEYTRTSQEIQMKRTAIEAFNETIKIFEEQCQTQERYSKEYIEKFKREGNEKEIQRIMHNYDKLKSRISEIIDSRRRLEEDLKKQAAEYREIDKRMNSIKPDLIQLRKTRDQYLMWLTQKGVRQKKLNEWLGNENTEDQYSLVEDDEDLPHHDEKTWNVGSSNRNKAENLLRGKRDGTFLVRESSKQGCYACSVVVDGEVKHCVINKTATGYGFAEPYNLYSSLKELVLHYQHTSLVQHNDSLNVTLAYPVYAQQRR
Chain of PI3Kδ (O00329 whole entry, canonical isoform): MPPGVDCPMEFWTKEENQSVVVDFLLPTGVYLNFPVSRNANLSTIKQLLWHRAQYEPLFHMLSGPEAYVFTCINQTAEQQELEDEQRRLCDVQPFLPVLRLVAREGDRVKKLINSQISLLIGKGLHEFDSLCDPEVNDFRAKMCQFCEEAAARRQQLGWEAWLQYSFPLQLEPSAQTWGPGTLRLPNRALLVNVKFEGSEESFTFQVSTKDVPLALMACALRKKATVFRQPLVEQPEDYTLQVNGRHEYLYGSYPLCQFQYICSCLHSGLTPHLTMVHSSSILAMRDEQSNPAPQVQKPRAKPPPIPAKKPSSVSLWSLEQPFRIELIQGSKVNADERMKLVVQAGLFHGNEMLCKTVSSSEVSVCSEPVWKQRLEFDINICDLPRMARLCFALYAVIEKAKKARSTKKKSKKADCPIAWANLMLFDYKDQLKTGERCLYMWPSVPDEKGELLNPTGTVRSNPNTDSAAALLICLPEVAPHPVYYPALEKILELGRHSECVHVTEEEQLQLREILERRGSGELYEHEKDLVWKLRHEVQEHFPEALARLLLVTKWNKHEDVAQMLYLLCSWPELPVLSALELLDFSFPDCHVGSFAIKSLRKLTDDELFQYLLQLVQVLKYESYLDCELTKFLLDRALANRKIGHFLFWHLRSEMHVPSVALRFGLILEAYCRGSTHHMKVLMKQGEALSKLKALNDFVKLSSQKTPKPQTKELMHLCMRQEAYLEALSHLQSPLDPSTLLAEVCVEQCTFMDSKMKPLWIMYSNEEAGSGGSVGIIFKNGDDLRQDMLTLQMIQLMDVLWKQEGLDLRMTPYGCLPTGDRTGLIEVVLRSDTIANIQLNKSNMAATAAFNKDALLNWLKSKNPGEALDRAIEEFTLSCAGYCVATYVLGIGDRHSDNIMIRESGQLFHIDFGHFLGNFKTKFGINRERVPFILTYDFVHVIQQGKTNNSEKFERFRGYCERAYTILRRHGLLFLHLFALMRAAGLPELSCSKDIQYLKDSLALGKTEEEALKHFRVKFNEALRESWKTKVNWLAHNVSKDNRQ
Chain of PI3Kδ (P27986 whole entry partner, canonical isoform): as the sequence (P27986 whole entry partner) above
Chain of PI3Kγ (P48736 whole entry, canonical isoform): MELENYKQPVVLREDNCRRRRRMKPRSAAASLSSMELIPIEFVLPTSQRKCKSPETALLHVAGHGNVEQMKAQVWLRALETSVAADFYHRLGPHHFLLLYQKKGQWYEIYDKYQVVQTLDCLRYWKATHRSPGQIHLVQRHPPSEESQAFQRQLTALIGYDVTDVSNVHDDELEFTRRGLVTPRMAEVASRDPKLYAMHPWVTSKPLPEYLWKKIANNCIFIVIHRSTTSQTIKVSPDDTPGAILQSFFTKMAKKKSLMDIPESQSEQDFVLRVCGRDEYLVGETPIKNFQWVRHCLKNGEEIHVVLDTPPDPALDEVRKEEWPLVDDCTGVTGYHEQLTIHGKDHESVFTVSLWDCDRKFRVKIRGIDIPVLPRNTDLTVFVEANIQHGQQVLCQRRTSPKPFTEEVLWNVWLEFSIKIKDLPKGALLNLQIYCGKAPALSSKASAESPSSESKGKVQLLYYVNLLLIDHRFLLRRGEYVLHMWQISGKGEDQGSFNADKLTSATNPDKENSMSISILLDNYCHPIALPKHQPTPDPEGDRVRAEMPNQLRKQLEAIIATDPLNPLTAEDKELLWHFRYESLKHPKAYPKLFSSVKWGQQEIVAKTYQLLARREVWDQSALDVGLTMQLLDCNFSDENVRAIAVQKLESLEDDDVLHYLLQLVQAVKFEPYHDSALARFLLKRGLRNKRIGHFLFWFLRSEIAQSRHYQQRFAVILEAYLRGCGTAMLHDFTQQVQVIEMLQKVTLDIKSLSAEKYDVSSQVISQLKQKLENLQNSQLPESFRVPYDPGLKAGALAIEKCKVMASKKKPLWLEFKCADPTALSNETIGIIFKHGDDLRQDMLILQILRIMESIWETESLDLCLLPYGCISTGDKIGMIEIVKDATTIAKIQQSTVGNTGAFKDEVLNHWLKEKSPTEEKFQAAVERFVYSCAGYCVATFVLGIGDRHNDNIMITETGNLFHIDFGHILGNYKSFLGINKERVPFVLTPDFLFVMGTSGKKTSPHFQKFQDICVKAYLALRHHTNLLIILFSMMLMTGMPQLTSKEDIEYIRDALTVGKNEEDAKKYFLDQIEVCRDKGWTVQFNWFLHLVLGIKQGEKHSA
Chain of PI3Kβ (P42338 whole entry, canonical isoform): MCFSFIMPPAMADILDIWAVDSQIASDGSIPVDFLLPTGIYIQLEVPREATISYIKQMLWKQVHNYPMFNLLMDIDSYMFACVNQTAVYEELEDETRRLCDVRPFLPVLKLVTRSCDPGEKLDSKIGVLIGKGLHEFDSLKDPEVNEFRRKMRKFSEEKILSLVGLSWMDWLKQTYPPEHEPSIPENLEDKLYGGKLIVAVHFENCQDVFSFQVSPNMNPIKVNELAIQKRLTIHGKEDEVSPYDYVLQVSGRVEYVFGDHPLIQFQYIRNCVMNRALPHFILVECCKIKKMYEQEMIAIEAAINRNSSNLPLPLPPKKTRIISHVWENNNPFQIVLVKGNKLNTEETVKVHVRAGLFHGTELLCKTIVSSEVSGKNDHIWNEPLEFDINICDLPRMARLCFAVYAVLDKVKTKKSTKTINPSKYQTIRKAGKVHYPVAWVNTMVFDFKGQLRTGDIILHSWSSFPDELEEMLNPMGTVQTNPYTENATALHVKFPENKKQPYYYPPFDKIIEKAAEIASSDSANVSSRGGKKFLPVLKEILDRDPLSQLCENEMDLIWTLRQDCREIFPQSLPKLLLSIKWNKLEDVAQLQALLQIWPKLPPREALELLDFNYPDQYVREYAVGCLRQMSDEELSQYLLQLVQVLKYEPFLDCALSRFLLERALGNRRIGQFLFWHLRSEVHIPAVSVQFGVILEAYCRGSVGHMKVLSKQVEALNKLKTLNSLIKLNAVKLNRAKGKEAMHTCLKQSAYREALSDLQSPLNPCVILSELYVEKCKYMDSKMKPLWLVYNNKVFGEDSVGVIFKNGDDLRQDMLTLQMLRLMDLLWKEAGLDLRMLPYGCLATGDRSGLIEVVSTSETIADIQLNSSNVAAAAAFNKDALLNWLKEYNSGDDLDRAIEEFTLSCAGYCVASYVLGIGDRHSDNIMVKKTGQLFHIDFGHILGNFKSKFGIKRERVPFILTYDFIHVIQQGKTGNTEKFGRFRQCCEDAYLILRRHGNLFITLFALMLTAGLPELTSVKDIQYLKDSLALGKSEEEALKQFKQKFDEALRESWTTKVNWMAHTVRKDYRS
Chain of PI3Kβ (P27986 whole entry partner, canonical isoform): as the sequence (P27986 whole entry partner) above

In the case of `Cc1nn(C)cc1-c1nc(N2CCOCC2)nc(N2CCOCC2)c1C#N` [Compound 17c], the concentration for half-maximal inhibition (IC50) at PI3Kα (setting [3]) was 1360 nM.
`c1nn(C2CCNCC2)cc1-c1nc(N2CCOCC2)nc(N2CCOCC2)n1` [Compound 12e]: at PI3Kα (setting [4]), the “IC50 against PI3Kα” value was “no activity”. Besides, the concentration for half-maximal inhibition (IC50) on PI3Kα (setting [3]) is more than 10000 nM.
Take `N#Cc1c(-c2ccncc2)nc(N2CCOCC2)nc1N1CCOCC1` [Compound 17j]: the figures for the IC50 at PI3Kα (setting [5]) and on PI3Kα (setting [3]) were more than 1000 nM and 3040 nM, respectively.
Turning to `COc1cc(N)c(Cl)cc1C(=O)NC1CCN(CCCOc2ccc(F)cc2)CC1OC` (stereo not shown) [Cisapride, reference compound], at hERG, the IC50 came to 410 ± 60 nM.
Take `N#Cc1c(-c2cccc3[nH]ncc23)nc(N2CCOCC2)nc1N1CCOCC1` [Compound 17b]: the IC50 on PI3Kα (setting [6]) was 30 to 300 nM; on PI3Kα (setting [3]), 254 ± 26.9 nM.
On to `N#Cc1c(-c2cn[nH]c2)nc(N2CCOCC2)nc1N1CCOCC1` [Compound 17a], for which the IC50 was 30 to 300 nM at PI3Kα (setting [6]) and 162 ± 13.1 nM on PI3Kα (setting [3]).
Take `N#Cc1c(-c2cnc(N)cc2C(F)(F)F)nc(N2CCOCC2)nc1N1CCOCC1` [Compound 17m]: the IC50 on PI3Kα (setting [6]) is 30 to 300 nM; at PI3Kα (setting [3]) it was 104 ± 12.5 nM; with MCF7 cells it was 1070 ± 90 nM; in the data set on DU145 cells it was 12400 ± 1470 nM; with U87MG cells, 66100 ± 9940 nM; in the data set with A2780 cells it was 2720 ± 190 nM. Moreover, in the data set on DU145 cells, the “IC50 DU145” value is listed as “no inhibitory effects”. Also, the “IC50 U87MG” value in the data set with U87MG cells is reported as “no inhibitory effects”.
As for `N#Cc1c(-c2ccc(N)nc2)nc(N2CCOCC2)nc1N1CCOCC1` [Compound 17k], the IC50 on PI3Kα (setting [6]) was 30 to 300 nM; on PI3Kα (setting [3]), 159 ± 14.4 nM.
For `N#Cc1c(-c2cnn(C3CCNCC3)c2)nc(N2CCOCC2)nc1N1CCOCC1` [Compound 17d], the “IC50 range in SAR figure (PI3Kα)” value on PI3Kα (Figure 5 activity bins) is reported as “no activity”. For the same compound, at PI3Kα (setting [3]), the IC50 was more than 10000 nM.
For `N#Cc1c(-c2cccnc2)nc(N2CCOCC2)nc1N1CCOCC1` [Compound 17i], the IC50 on PI3Kα (setting [6]) is 400 to 800 nM; on PI3Kα (setting [3]), 792 ± 87.7 nM.
Turning to `Cc1cc(N)ncc1-c1nc(N2CCOCC2)nc(N2CCOCC2)c1C#N` [Compound 17l], the IC50 at PI3Kα (setting [6]) is 400 to 800 nM; at PI3Kα (setting [3]), 443 ± 39.7 nM.
Regarding `c1nn(C2CCNCC2)cc1-c1cc(N2CCOCC2)nc(N2CCOCC2)n1` [Compound 12c], at PI3Kα (setting [4]), the “IC50 against PI3Kα” value is reported as “no activity”. On PI3Kα (setting [3]), the IC50 was more than 10000 nM.
Turning to `CCOC(=O)C1CCN(c2nc(-c3cnc(N)cc3C(F)(F)F)cc(N3CCOCC3)n2)CC1` [Compound 12b], at PI3Kα (setting [3]), the IC50 was determined as 685 ± 62.6 nM.
Take `COc1cccc(-c2nc(N3CCOCC3)nc(N3CCOCC3)c2C#N)c1` [Compound 17g]: the IC50 is more than 1000 nM on PI3Kα (setting [5]) and 3270 nM at PI3Kα (setting [3]).
In the case of `N#Cc1c(-c2ccc(N)cc2)nc(N2CCOCC2)nc1N1CCOCC1` [Compound 17h], the IC50 is 400 to 800 nM on PI3Kα (setting [6]) and 477 ± 52.4 nM on PI3Kα (setting [3]).
`CNc1ncc(-c2nc(N3CCOCC3)nc(N3CCOCC3)c2C#N)cn1` [Compound 17o]: the IC50 at PI3Kα (setting [6]) is 30 to 300 nM; at PI3Kα (setting [7]), 34.7 ± 4.6 nM; on PI3Kα (setting [3]), 34.7 ± 2.1 nM; at PI3Kδ it was 204 ± 22.2 nM; with MCF7 cells, 1160 ± 120 nM; against PI3Kβ, 176 ± 26.3 nM. The IC50 worked out at 176 ± 15.9 nM at PI3Kγ; 5050 ± 470 nM in the data set with DU145 cells; 4190 ± 530 nM in the data set on U87MG cells; 204 ± 30.1 nM against mTOR; 1130 ± 100 nM in the data set with A2780 cells.
In the case of `CCOC(=O)C1CCN(c2nc(-c3cnc(N)cc3C(F)(F)F)nc(N3CCOCC3)n2)CC1` [Compound 12f], at PI3Kα (setting [3]), the IC50 was determined as 371 ± 45.4 nM.
`N#Cc1c(-c2cccc(O)c2)nc(N2CCOCC2)nc1N1CCOCC1` [Compound 17e]: the IC50 at PI3Kα (setting [6]) is 30 to 300 nM; at PI3Kα (setting [7]) it was 86.1 ± 7.8 nM; at PI3Kα (setting [3]), 88.5 ± 6.1 nM; on PI3Kδ it was 55.6 ± 3.8 nM; with MCF7 cells, 370 ± 30 nM; against PI3Kβ, 152 ± 18.7 nM. Moreover, the half-maximal inhibitory concentration (IC50) against PI3Kγ was 318 ± 19 nM; in the data set with HL-7702 cells, 6170 ± 750 nM; with DU145 cells, 1520 ± 110 nM; with MRC-5 cells, 2190 ± 110 nM; in the data set on U87MG cells, 1750 ± 220 nM; on mTOR, more than 10000 nM. In the data set on A2780 cells, this compound gave a concentration for half-maximal inhibition (IC50) of 390 ± 30 nM.
As to `Nc1cc(C(F)(F)F)c(-c2cc(N3CCOCC3)nc(N3CCOCC3)n2)cn1` [BKM-120, Buparlisib, reference compound], the IC50 in the data set on MCF7 cells is 280 ± 40 nM; in the data set with HL-7702 cells it was 890 ± 60 nM; in the data set with DU145 cells, 2240 ± 140 nM; in the data set with MRC-5 cells, 980 ± 100 nM; in the data set on U87MG cells, 2150 ± 190 nM; in the data set on A2780 cells it was 410 ± 60 nM. The “Number of bacterial colony revertant mutations (mean ± SD) TA98” value in data set [1] was 241 ± 55. Moreover, the “Number of bacterial colony revertant mutations (mean ± SD) TA100” value in data set [2] worked out at 555 ± 94.
As to `COc1ccc(-c2cc(N3CCOCC3)nc(N3CCOCC3)n2)cn1` [Compound 12d], the “IC50 against PI3Kα” value on PI3Kα (setting [4]) is “poor activity”. In addition, the IC50 on PI3Kα (setting [3]) turned out to be 1010 nM.
Consider `CCOC(=O)C1CCN(c2cc(-c3cnc(N)cc3C(F)(F)F)nc(N3CCOCC3)n2)CC1` [Compound 12a], for which the IC50 on PI3Kα (setting [3]) worked out at 2290 nM.
`N#Cc1c(-c2cncnc2)nc(N2CCOCC2)nc1N1CCOCC1` [Compound 17n]: the IC50 on PI3Kα (setting [6]) was 400 to 800 nM; on PI3Kα (setting [3]) it was 604 ± 103 nM.
The matching figures for `N#Cc1c(-c2ccc(O)cc2)nc(N2CCOCC2)nc1N1CCOCC1` [Compound 17f]: 400 to 800 nM and 473 ± 28.3 nM.
